Laboratory results: patent US11622991B2, “Protocol for treatment of lupus nephritis” (Aurinia Pharmaceuticals Inc., priority 2017, dated 2023)
Like-named read-outs stand apart in the source and are kept apart here.

What was measured:
lupus nephritis [1] = assay: Predictability from early reduction in UPCR or C3/C4 normalization combined at 12 weeks (Tables 13-17); type: in vivo, human
From the text: (§1) PR is defined as at least 50% reduction in proteinuria (i.e. UPCR).
(§2) Sensitivity is defined as the probability that a subject showing PR at 48 weeks would have shown a favorable result with regard to the marker at the designated early time point. In the tables below, this is the ratio of the number of subjects with favorable marker results (early drop or normalization) to the total subjects with 48 week PR.
(§3) Specificity is defined as the probability that a subject not showing PR at 48 weeks would have shown an unfavorable result with regard to the marker at the designated early time point. In the tables below, this is the ratio of the number of subjects with unfavorable marker results (no early drop or no normalization) to the total subjects with no 48 week PR.
(§4) Positive predictive value is defined as the probability that a subject showing a favorable result with respect to the marker at an earlier time point would show PR at 48 weeks. In the tables below, this is the ratio of the number of subjects with favorable marker results who have 48 week PR to those with favorable marker results (early reduction or yes column).
Negative predictive value is defined as the probability that a subject showing an unfavorable result with respect to the marker at an earlier time point would not show PR at 48 weeks. In the tables below, this is the ratio of the number of subjects with unfavorable marker results who have no PR at 48 weeks to the total subjects with unfavorable marker results (no early reduction or no column). […]

lupus nephritis [2] = assay: Predictability of week 48 partial remission from early C3/C4 normalization (Table 12); type: in vivo, human
From the text: as §1, §2, §3, §4
Negative predictive value is defined as the probability that a subject showing an unfavorable result with respect to the marker at an earlier time point would not show PR at 48 weeks. In the tables below, this is the ratio of the number of subjects with unfavorable marker results who have no PR at 48 weeks to the total subjects with unfavorable marker results (no early reduction or no column).
Another criterion for effectiveness is normalization of C3 and/or C4 concentration in blood. The normal concentration of C3 is 90 mg/dl or greater and for C4 16 mg/dl or greater.

lupus nephritis [3] = conditions: cited from earlier work
[4] = Early 25% reduction in UPCR or C3/C4 normalization, Week 12, 23.7 mg BID, number of patients
[5] = Early 25% reduction in UPCR or C3/C4 normalization, Week 12, 39.5 mg BID, number of patients
[6] = Early 25% reduction in UPCR or C3/C4 normalization, Week 24, 23.7 mg BID, number of patients
[7] = Early 25% reduction in UPCR or C3/C4 normalization, Week 48, 23.7 mg BID, number of patients
[8] = Early 30% reduction in UPCR or C3/C4 normalization, Week 12, 23.7 mg BID, number of patients
[9] = Early 30% reduction in UPCR or C3/C4 normalization, Week 12, 39.5 mg BID, number of patients
[10] = Early 30% reduction in UPCR or C3/C4 normalization, Week 24, 23.7 mg BID, number of patients
[11] = Early 30% reduction in UPCR or C3/C4 normalization, Week 48, 23.7 mg BID, number of patients
[12] = Early 30% reduction in UPCR or C3/C4 normalization, Week 48, 39.5 mg BID, number of patients
[13] = Early 35% reduction in UPCR or C3/C4 normalization, Week 12, 23.7 mg BID, number of patients
[14] = Early 35% reduction in UPCR or C3/C4 normalization, Week 12, 39.5 mg BID, number of patients
[15] = Early 35% reduction in UPCR or C3/C4 normalization, Week 24, 23.7 mg BID, number of patients
[16] = Early 35% reduction in UPCR or C3/C4 normalization, Week 48, 23.7 mg BID, number of patients
[17] = Early 35% reduction in UPCR or C3/C4 normalization, Week 48, 39.5 mg BID, number of patients
[18] = early 15% reduction in UPCR or C3/C4 normalization, week 12, 23.7 mg BID
[19] = early 15% reduction in UPCR or C3/C4 normalization, week 12, 39.5 mg BID
[20] = early 15% reduction in UPCR or C3/C4 normalization, week 24, 23.7 mg BID
[21] = early 15% reduction in UPCR or C3/C4 normalization, week 24, 39.5 mg BID
[22] = early 15% reduction in UPCR or C3/C4 normalization, week 48, 23.7 mg BID
[23] = early 15% reduction in UPCR or C3/C4 normalization, week 48, 39.5 mg BID
[24] = early 20% reduction in UPCR or C3/C4 normalization, week 12, 23.7 mg BID
[25] = early 20% reduction in UPCR or C3/C4 normalization, week 12, 39.5 mg BID
[26] = early 20% reduction in UPCR or C3/C4 normalization, week 24, 23.7 mg BID
[27] = early 20% reduction in UPCR or C3/C4 normalization, week 24, 39.5 mg BID
[28] = early 20% reduction in UPCR or C3/C4 normalization, week 48, 23.7 mg BID
[29] = early 20% reduction in UPCR or C3/C4 normalization, week 48, 39.5 mg BID

For `C=C/C=C/C[C@@H](C)[C@@H](O)[C@H]1C(=O)N[C@@H](CC)C(=O)N(C)CC(=O)N(C)[C@@H](CC(C)C)C(=O)N[C@@H](C(C)C)C(=O)N(C)[C@@H](CC(C)C)C(=O)N[C@@H](C)C(=O)N[C@H](C)C(=O)N(C)[C@@H](CC(C)C)C(=O)N(C)[C@@H](CC(C)C)C(=O)N(C)[C@@H](C(C)C)C(=O)N1C` [voclosporin], the “No Week 48 Partial Remission, No Early Drop or Normal” value (lupus nephritis [1]; [4]) was 3, the “Week 48 Partial Remission, No Early Drop or Normal” value (lupus nephritis [1]; [4]) was 2 and the “No Week 48 Partial Remission, No Early Drop or Normal” value (lupus nephritis [1]; [5]) was 3. The “Week 48 Partial Remission, No Early Drop or Normal” value (lupus nephritis [1]; [5]) was 3, the “Early Drop or Normal No” value (lupus nephritis [1]; [6]) was 1 and the “No Week 48 Partial Remission, No Early Drop or Normal” value (lupus nephritis [1]; [6]) was 1. The “Early Drop or Normal No” value (lupus nephritis [1]; Early 25% reduction in UPCR or C3/C4 normalization, Week 24, 39.5 mg BID, number of patients) was 10, the “Early Drop or Normal No” value (lupus nephritis [1]; [7]) was 1 and the “No Week 48 Partial Remission, Early Drop or Normal” value (lupus nephritis [1]; [7]) was 10. The “No Week 48 Partial Remission, No Early Drop or Normal” value (lupus nephritis [1]; [7]) was 1, the “No Week 48 Partial Remission, Early Drop or Normal” value (lupus nephritis [1]; Early 25% reduction in UPCR or C3/C4 normalization, Week 48, 39.5 mg BID, number of patients) was 10 and the “No Week 48 Partial Remission, No Early Drop or Normal” value (lupus nephritis [1]; [8]) was 3. For the same compound, the “Week 48 Partial Remission, No Early Drop or Normal” value (lupus nephritis [1]; [8]) was 2, the “Early Drop or Normal No” value (lupus nephritis [1]; [9]) was 7 and the “No Week 48 Partial Remission, No Early Drop or Normal” value (lupus nephritis [1]; [9]) was 3. For the same compound, the “Week 48 Partial Remission, No Early Drop or Normal” value (lupus nephritis [1]; [9]) was 4, the “Early Drop or Normal No” value (lupus nephritis [1]; [10]) was 1 and the “No Week 48 Partial Remission, No Early Drop or Normal” value (lupus nephritis [1]; [10]) was 1. For the same compound, the “Early Drop or Normal No” value (lupus nephritis [1]; Early 30% reduction in UPCR or C3/C4 normalization, Week 24, 39.5 mg BID, number of patients) was 10, the “Early Drop or Normal No” value (lupus nephritis [1]; [11]) was 2 and the “No Week 48 Partial Remission, Early Drop or Normal” value (lupus nephritis [1]; [11]) was 9. The “No Week 48 Partial Remission, No Early Drop or Normal” value (lupus nephritis [1]; [11]) was 2, the “Early Drop or Normal No” value (lupus nephritis [1]; [12]) was 8 and the “No Week 48 Partial Remission, Early Drop or Normal” value (lupus nephritis [1]; [12]) was 8. For the same compound, the “No Week 48 Partial Remission, No Early Drop or Normal” value (lupus nephritis [1]; [12]) was 8, the “Early Drop or Normal No” value (lupus nephritis [1]; [13]) was 9 and the “Week 48 Partial Remission, No Early Drop or Normal” value (lupus nephritis [1]; [13]) was 4. For the same compound, the “Early Drop or Normal No” value (lupus nephritis [1]; [14]) was 9, the “No Week 48 Partial Remission, No Early Drop or Normal” value (lupus nephritis [1]; [14]) was 3 and the “Early Drop or Normal No” value (lupus nephritis [1]; [15]) was 4. The “No Week 48 Partial Remission, Early Drop or Normal” value (lupus nephritis [1]; [15]) was 10, the “No Week 48 Partial Remission, No Early Drop or Normal” value (lupus nephritis [1]; [15]) was 4 and the “Early Drop or Normal No” value (lupus nephritis [1]; Early 35% reduction in UPCR or C3/C4 normalization, Week 24, 39.5 mg BID, number of patients) was 10. The “Early Drop or Normal No” value (lupus nephritis [1]; [16]) was 3, the “No Week 48 Partial Remission, Early Drop or Normal” value (lupus nephritis [1]; [16]) was 8 and the “No Week 48 Partial Remission, No Early Drop or Normal” value (lupus nephritis [1]; [16]) was 3. The “Early Drop or Normal No” value (lupus nephritis [1]; [17]) was 9, the “No Week 48 Partial Remission, Early Drop or Normal” value (lupus nephritis [1]; [17]) was 7 and the “No Week 48 Partial Remission, No Early Drop or Normal” value (lupus nephritis [1]; [17]) was 9. For the same compound, the “Early Drop or Normal No” value (lupus nephritis [1]; [18]) was 2, the “No Week 48 Partial Remission, No Early Drop or Normal” value (lupus nephritis [1]; [18]) was 1 and the “Week 48 Partial Remission, No Early Drop or Normal” value (lupus nephritis [1]; [18]) was 1. For the same compound, the “No Week 48 Partial Remission, No Early Drop or Normal” value (lupus nephritis [1]; [19]) was 3, the “Week 48 Partial Remission, No Early Drop or Normal” value (lupus nephritis [1]; [19]) was 3 and the “Early Drop or Normal No” value (lupus nephritis [1]; [20]) was 1. For the same compound, the “No Week 48 Partial Remission, No Early Drop or Normal” value (lupus nephritis [1]; [20]) was 1, the “Early Drop or Normal No” value (lupus nephritis [1]; [21]) was 9 and the “No Week 48 Partial Remission, No Early Drop or Normal” value (lupus nephritis [1]; [21]) was 4. The “Early Drop or Normal No” value (lupus nephritis [1]; [22]) was 1, the “No Week 48 Partial Remission, Early Drop or Normal” value (lupus nephritis [1]; [22]) was 10 and the “No Week 48 Partial Remission, No Early Drop or Normal” value (lupus nephritis [1]; [22]) was 1. The “Early Drop or Normal No” value (lupus nephritis [1]; [23]) was 4, the “No Week 48 Partial Remission, No Early Drop or Normal” value (lupus nephritis [1]; [23]) was 4 and the “Early Drop or Normal No” value (lupus nephritis [1]; [24]) was 3. For the same compound, the “No Week 48 Partial Remission, No Early Drop or Normal” value (lupus nephritis [1]; [24]) was 2, the “Week 48 Partial Remission, No Early Drop or Normal” value (lupus nephritis [1]; [24]) was 1 and the “No Week 48 Partial Remission, No Early Drop or Normal” value (lupus nephritis [1]; [25]) was 3. For the same compound, the “Week 48 Partial Remission, No Early Drop or Normal” value (lupus nephritis [1]; [25]) was 3, the “Early Drop or Normal No” value (lupus nephritis [1]; [26]) was 1 and the “No Week 48 Partial Remission, No Early Drop or Normal” value (lupus nephritis [1]; [26]) was 1. The “Early Drop or Normal No” value (lupus nephritis [1]; [27]) was 9, the “No Week 48 Partial Remission, No Early Drop or Normal” value (lupus nephritis [1]; [27]) was 4 and the “Early Drop or Normal No” value (lupus nephritis [1]; [28]) was 1. For the same compound, the “No Week 48 Partial Remission, Early Drop or Normal” value (lupus nephritis [1]; [28]) was 10, the “No Week 48 Partial Remission, No Early Drop or Normal” value (lupus nephritis [1]; [28]) was 1 and the “Early Drop or Normal No” value (lupus nephritis [1]; [29]) was 4. For the same compound, the “No Week 48 Partial Remission, No Early Drop or Normal” value (lupus nephritis [1]; [29]) was 4, the “Normalization Yes” value (lupus nephritis [2]; week 12, 23.7 mg BID) was 26 and the “No Week 48 Partial Remission No Normalization” value (lupus nephritis [2]; week 12, 39.5 mg BID) was 10. For the same compound, the “No Week 48 Partial Remission Normalization” value (lupus nephritis [2]; week 12, 39.5 mg BID) was 7, the “Week 48 Partial Remission No Normalization” value (lupus nephritis [2]; week 12, 39.5 mg BID) was 33 and the “Week 48 Partial Remission Normalization” value (lupus nephritis [2]; week 12, 39.5 mg BID) was 29. For the same compound, the “No Week 48 Partial Remission No Normalization” value (lupus nephritis [2]; week 24, 23.7 mg BID) was 10, the “No Week 48 Partial Remission Normalization” value (lupus nephritis [2]; week 24, 23.7 mg BID) was 4 and the “Normalization Yes” value (lupus nephritis [2]; week 24, 23.7 mg BID) was 27. The “Normalization Yes” value (lupus nephritis [2]; week 24, 39.5 mg BID) was 31, the “No Week 48 Partial Remission No Normalization” value (lupus nephritis [2]; week 48, 23.7 mg BID) was 8 and the “No Week 48 Partial Remission Normalization” value (lupus nephritis [2]; week 48, 23.7 mg BID) was 2. The “No Week 48 Partial Remission No Normalization” value (lupus nephritis [2]; week 48, 39.5 mg BID) was 11, the “Normalization Yes” value (lupus nephritis [2]; week 48, 39.5 mg BID) was 32 and the remission (lupus nephritis [3]; 23.7 mg or 39.5 mg twice daily with MMF and reducing corticosteroid, 24 weeks and 48 weeks) was “successful complete or partial remission in a large number of patients”. The remission (lupus nephritis [3]; 23.7 mg twice daily with MMF and reducing corticosteroid dose, 24 weeks) was “complete remission or partial remission in a large percentage of subjects”.
